pEC50: −log10 of the molar value. Where only a bound is given, the exact number is not on record here.

A word on the pEC50: it is the EC50 on a negative log10 scale, so that one unit is a factor of ten.

Chain of Tumor necrosis factor receptor superfamily member 10B (O14763 whole entry): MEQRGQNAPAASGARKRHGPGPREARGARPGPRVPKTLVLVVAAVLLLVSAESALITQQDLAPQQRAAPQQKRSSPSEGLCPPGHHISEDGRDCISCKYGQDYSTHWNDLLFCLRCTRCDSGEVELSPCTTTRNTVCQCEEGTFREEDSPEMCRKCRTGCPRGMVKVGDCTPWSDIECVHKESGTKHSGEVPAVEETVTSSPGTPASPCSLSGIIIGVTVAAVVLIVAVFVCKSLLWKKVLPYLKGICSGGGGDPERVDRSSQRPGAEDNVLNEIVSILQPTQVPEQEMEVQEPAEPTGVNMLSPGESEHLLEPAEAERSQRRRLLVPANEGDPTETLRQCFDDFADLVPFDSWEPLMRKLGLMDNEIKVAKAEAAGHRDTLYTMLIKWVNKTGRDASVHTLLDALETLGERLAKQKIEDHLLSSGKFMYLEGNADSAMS

This assay addresses Tumor necrosis factor receptor superfamily member 10B (Homo sapiens, UniProt O14763).
Turning to `CN(C)c1ccc(N=CCC(=O)c2ccco2)cc1`, the pEC50 is 5.12.
Then `O=c1c2ccccc2nc2c3ccccc3cnn12`, with less than 4.90; and `Cc1ccc(N=CC(C(=O)c2cccs2)C(=O)C(F)(F)F)cc1` (stereo unspecified), with 5.73; and `CCOC(=O)C(c1nc2ccccc2[nH]1)n1c(-c2cccnc2)nc2ccccc21` (stereo unspecified) [2-(1,3-dihydrobenzimidazol-2-ylidene)-2-[2-(3-pyridinyl)-1-benzimidazolyl]acetic acid ethyl ester], with 4.98.
Then `Cc1cc(N=NCc2ccccc2)nc(NCc2ccccc2)n1` [6-methyl-N2-(phenylmethyl)-N4-[(E)-(phenylmethylidene)amino]pyrimidine-2,4-diamine], with less than 4.90; and `O=C(Cc1ccc2ccccc2n1)c1ccc(O)cc1O` [(2Z)-1-(2,4-dihydroxyphenyl)-2-(1H-quinolin-2-ylidene)ethanone], with less than 4.90.
Then `COc1cccc(N=CCC(=O)c2ccc(Cl)cc2)c1` [(E)-1-(4-chlorophenyl)-3-(3-methoxyanilino)-2-propen-1-one], with 4.99; and `O=c1[nH]c(N=NCc2ccc3c(c2)OCO3)nc2ccccc12` [MLS000700888], with 4.96.
On to `COc1ccc(C(C)N=Nc2nncc3ccccc23)cc1` (stereo unspecified) [N-[(E)-1-(4-methoxyphenyl)ethylideneamino]-1-phthalazinamine], for which the pEC50 was less than 4.90.
Then `COc1ccc(CN=Nc2nc3ccccc3c(=O)n2-c2ccccc2)cc1OC` [SMR000174011], with 5.07; and `CCOC(=O)c1ccc(N=CCC(=O)c2ccco2)cc1` [ethyl 4-[[(E)-3-(furan-2-yl)-3-oxoprop-1-enyl]amino]benzoate], with less than 4.90.

The values above are taken from BindingDB's records for doi:10.7270/Q2P55M4P (Burnham Center For Chemical Genomics, 2013).
